# Article PMC10194981, “Chemosensory protein regulates the behavioural response of Frankliniella intonsa and Frankliniella occidentalis to tomato zonate spot virus–Infected pepper (Capsicum annuum)” (PLOS Pathogens, 2023)
# Assays:
# FoccCSP-Asp64Ala = FoccCSP-Asp64Ala (Frankliniella occidentalis, UniProt G4Y3X1, D64A); assay: Fluorescence (1-NPN) binding and competitive binding assay, FoccCSP mutant
# Method: (§1) The binding affinity of FintCSP1 and FoccCSP to the fluorescent probe N-phenyl-1-naphthylamine (1-NPN) was tested using a Spectramax M2 fluorescence spectrometer (Molecular Devices, USA) as reported previously. […] The 1-NPN/FintCSP1 or 1-NPN/FoccCSP mixture was excited at 280 nm, and the emission spectra were recorded at 415 nm. The binding constants (Kd) of FintCSP1 or FoccCSP to 1-NPN were calculated by Scatchard analysis using Prism 5 software (GraphPad, La Jolla, CA, USA). Assuming a protein activity of 100% and that the volatile compound binds to the protein in a 1:1 ratio at saturation, the dissociation constants (Ki) of FintCSP1 or FoccCSP for each ligand were calculated according to the IC50 (the concentration when the ligand replaces 50% of the probe) value of the volatile compounds. The Ki values were calculated according to the following equation: Ki = [IC50]/(1 + [1-NPN]/K1-NPN), where [1-NPN] is the free concentration of 1-NPN, and K1-NPN is the Kd of the 1-NPN/FintCSP1 or 1-NPN/FoccCSP.
# (§2) To verify the key amino acids of FintCSP1 and FoccCSP that bind to cis-3-hexenal, six amino acid residues of FintCSP1 were mutated (Lys26Ala, Phe27Ala, Thr28Ala, Glu67Ala, Ser84Ala, and the negative control residue Val132Ala) and nine amino acid residues of FoccCSP were mutated (Lys26Ala, Phe27Ala, Thr28Ala, Thr29Ala, Tyr31Ala, Asp64Ala, Glu67Ala, Gln87Ala, and the negative control residue Val132Ala) with the Fast Mutagenesis System Kit (Transgen Biotech, Beijing, China) using the pET-30a/FintCSP1 and pET-30a/FoccCSP plasmid DNA as template, respectively. Specific primers were designed using Primer Premier 5.0 according to the instructions of the Fast Mutagenesis System Kit (S1 Table). After validation by sequencing, each recombinant variant protein was produced and purified as described above, and their binding affinity to cis-3-hexenal was measured as described above.
# FoccCSP-Glu67Ala = FoccCSP-Glu67Ala (Frankliniella occidentalis, UniProt G4Y3X1, E67A); assay: as above
# Method: as §1, §2
# FoccCSP-Phe27Ala = FoccCSP-Phe27Ala (Frankliniella occidentalis, UniProt G4Y3X1, F27A); assay: as above
# Method: as §1, §2
# FoccCSP-Thr28Ala = FoccCSP-Thr28Ala (Frankliniella occidentalis, UniProt G4Y3X1, T28A); assay: as above
# Method: as §1, §2
# FoccCSP-Thr29Ala = FoccCSP-Thr29Ala (Frankliniella occidentalis, UniProt G4Y3X1, T29A); assay: as above
# Method: as §1, §2
# F. intonsa antennae = assay: Electroantennogram (EAG) assay; parameters: species or system Frankliniella intonsa
# Method: The FintCSP1, FintCSP2, FintOBP, FintOR, FoccCSP, and enhanced green fluorescent protein (EGFP) coding sequences were obtained from GenBank under accession numbers MT199111, MT211602, OK067245, MT211603, AEP27186.1, and U55761.1, respectively. Primers were designed using Primer Premier 5.0, and the T7 promoter sequence (5′-[…]-3′) was added to the 5′ end of each primer (S1 Table). DNA fragments containing T7 promoter sequences were amplified by PCR using pEASY-T1/target gene or pUC-EGFP (preserved in the laboratory) plasmid DNA as template. Then, a double-stranded RNA (dsRNA) was produced from each target gene using the HiScribe T7 Quick High Yield RNA Synthesis Kit (New England Biolabs) according to the manufacturer’s instructions. Six hundred 2-day-old female F. intonsa or two hundred 2-day-old female F. occidentalis adults were anesthetized using CO2 and microinjected with 40 nL (3 μg/μL) dsRNA (dsFintCSP1 dsFintCSP2, dsFintOBP, dsFintOR or dsFoccCSP or dsEGFP) using a CellTram Oil microinjector (Eppendorf, Hamburg, Germany). The injected thrips were kept on broad beans in an artificial climate incubator as described above and used in subsequent RNAi experiments. Three biological replicates were conducted for each treatment with each dsRNA.
# At 24 h after dsRNA injection, the electrophysiological responses of F. intonsa antennae to six volatile components (i.e., m-cymene, cis-3-hexenal, (+)-2-carene, trans-2-hexenal, α-phellandrene, and α-humulene) or F. occidentalis antennae to cis-3-hexenal were recorded using EAG. Antennae of female adult thrips were cut off at the base, and the distal terminus was carefully removed. The tested compounds were dissolved in liquid paraffin, with pure liquid paraffin used as a negative control. An Ag-AgCl2 glass electrode and Kaissling electrode solution were used in the experiment according to Tian et al.. The base of the antenna was inserted into the glass capillary filled with electrode solution at the end of the reference electrode; the top of the antenna was connected to the glass capillary at the end of the recording electrode to ensure no bubbles in the glass capillary. After successful connection, the antennae were stimulated with each chemical in the following order: liquid paraffin, volatile compounds, and liquid paraffin. Stimulus time was 0.2 s with each stimulus at 40 s intervals. At least 10 antennae were tested for each volatile compound. The EAG values to volatile compounds were calculated using the following equation: absolute value of EAG reaction = reaction value of the tested sample—average value of two control measurements.
# Anagrus nilaparvatae = tested on: Anagrus nilaparvatae; parameters: method as in PMID 31300659; details: 1:20,000 dilution; cited from earlier work
# M. sexta larvae = tested on: M. sexta larvae; parameters: method as in PMID 25261073; details: cited from earlier work
# [1] = tested on: fall webworm moth (Hyphantria cunea) antennae; parameters: method as in PMID 23166622; details: cited from earlier work
# Chain of FoccCSP-Glu67Ala (G4Y3X1 entry or part of it E67A): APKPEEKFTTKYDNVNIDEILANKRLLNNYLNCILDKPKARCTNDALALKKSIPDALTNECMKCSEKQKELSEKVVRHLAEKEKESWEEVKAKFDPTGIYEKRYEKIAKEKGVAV
# Chain of FoccCSP-Asp64Ala (G4Y3X1 entry or part of it D64A): as the sequence (G4Y3X1 entry or part of it E67A) above, with D45A, A48E counted along it
# Chain of FoccCSP-Phe27Ala (G4Y3X1 entry or part of it F27A): as the sequence (G4Y3X1 entry or part of it E67A) above, with F8A, A48E counted along it
# Chain of FoccCSP-Thr29Ala (G4Y3X1 entry or part of it T29A): as the sequence (G4Y3X1 entry or part of it E67A) above, with T10A, A48E counted along it
# Chain of FoccCSP-Thr28Ala (G4Y3X1 entry or part of it T28A): as the sequence (G4Y3X1 entry or part of it E67A) above, with T9A, A48E counted along it
smiles,measurement,setting,value
CC/C=C\CC=O [cis-3-hexenal],IC50,FoccCSP-Asp64Ala,65.9 ± 0.79 µM
same,Ki,FoccCSP-Asp64Ala,62.2 ± 0.75 µM
same,binding affinity to cis-3-hexenal (in words),FoccCSP-Asp64Ala; FoccCSP-Asp64Ala compared to the wild-type protein,significantly decreased binding affinities
same,IC50,FoccCSP-Glu67Ala,92.9 ± 2.14 µM
same,Ki,FoccCSP-Glu67Ala,83.7 ± 1.93 µM
same,binding affinity to cis-3-hexenal (in words),FoccCSP-Glu67Ala; FoccCSP-Glu67Ala compared to the wild-type protein,significantly decreased binding affinities
same,IC50,FoccCSP-Phe27Ala,> 100 µM
same,affinity for cis-3-hexenal (in words),FoccCSP-Phe27Ala; FoccCSP-Phe27Ala,no affinity
same,IC50,FoccCSP-Thr28Ala,> 100 µM
same,affinity for cis-3-hexenal (in words),FoccCSP-Thr28Ala; FoccCSP-Thr28Ala,no affinity
same,IC50,FoccCSP-Thr29Ala,> 100 µM
same,affinity for cis-3-hexenal (in words),FoccCSP-Thr29Ala; FoccCSP-Thr29Ala,no affinity
same,EAG peak amplitude,"F. intonsa antennae; 10 mg/L in liquid paraffin, excised F. intonsa antennae",–0.077 mV
same,EAG response of FintCSP1-silenced antennae (in words),"F. intonsa antennae; dsFintCSP1-injected compared to dsEGFP-injected F. intonsa, 24 h after injection",significantly lower response
same,attraction of Anagrus nilaparvatae (in words),Anagrus nilaparvatae,attracts Anagrus nilaparvatae
same,effect on M. sexta larvae (in words),M. sexta larvae,feeding stimulant
same,effect on antennal sensitivity to pheromones (in words),[1],raising the sensitivity
